pEC50: −log10 of the molar value. Where a name gives a salt, the structure may show the parent alone. Read-outs that look alike come from different tables or passages of the source. Marks after values point to notes of the source that are not given here.
Legend:
[1] = target: T1, human opioid κ receptor (Homo sapiens, UniProt P41145); experiment: Opioid receptor function test (Lance Ultra cAMP Kit), κ receptor; format: cell-based; conditions: for pEC50: CHO cells expressing human κ receptor, cAMP, in the presence of forskolin; for κ receptor reaction rate at the maximum concentration (reference value, marked *): maximum reaction not reached, maximum concentration 10 μM, U-69593 = 100%
T1 construct: host or cells: CHO cells
Method: (§1) Opioid Receptor Function Test
(§2) The functional activities of the compounds provided by the present invention on the μ, δ, and κ opioid receptors were investigated.
(§3) The test was performed by using Lance Ultra cAMP Kit (PerkinElmer) according to a method predetermined for the kit. In the evaluation of the agonistic activity, CHO cells expressing each of the human opioid receptors (δ, μ, and κ, accession numbers and catalog numbers are mentioned below) and 10 μM of each test compound were reacted for 30 minutes in an assay buffer (1× HBSS, […], pH 7.4, […] (isobutylmethylxanthine), 7.5% BSA) in the presence of forskolin. Subsequently, the cAMP detection reagent included in the kit was added, and 1 hour afterward, time-resolved fluorescence measurement was performed by using the EnVision plate reader (PerkinElmer). The test compounds and the control drugs (δ: SNC80, μ: DAMGO, κ: U-69593) were evaluated in a concentration range of 10^−12 to 10^−5 M, a dose-response curve of each test compound was obtained from the fluorescence values at 665 nm, and EC50 value and the Emax value were calculated. The Emax value was calculated as a ratio of the maximum reaction of the test compound to the maximum reaction of each control drug, which is taken as 100%.
(§4) • δ: Catalog No. CT4607, Accession No. NM_000911.2 • μ: Catalog No. CT4605, Accession No. NM_000914 • κ: Catalog No. CT4606, Accession No. NM_000912 (ChanTest Corporation)

[2] = target: T2, human opioid μ receptor (Homo sapiens, UniProt P35372); experiment: Opioid receptor function test (Lance Ultra cAMP Kit), μ receptor; format: cell-based; conditions: for pEC50: read-out: μ receptor EC50 value
T2 construct: host or cells: CHO cells
Method: as §1, §2, §3, §4

[3] = target: T3, human opioid δ receptor (Homo sapiens, UniProt P41143); experiment: Opioid receptor function test (Lance Ultra cAMP Kit), δ receptor; format: cell-based; conditions: for pEC50: CHO cells expressing human δ receptor, cAMP, in the presence of forskolin; for Emax / δ receptor Emax: ratio to maximum reaction of control drug SNC80 taken as 100%
T3 construct: host or cells: CHO cells
Method: as §1, §2, §3, §4

[4] = test system: olfactory bulbectomized (OBX) rat; experiment: Hyperemotional reaction inhibition test using olfactory bulbectomized (OBX) rat; format: in vivo; conditions: 10 mg/kg s.c. once a day, on the day 14 of the administration period
Description: Hyperemotional Reaction Inhibition Test Using Olfactory Bulbectomized (OBX) Rat
According to the method of Saitoh et al. (Saitoh A, Yamada M, Yamada M, Takahashi K, Yamaguchi K, Murasawa H, Nakatani A, Tatsumi Y, Hirose N, and Kamei J: Antidepressant-like effects of the delta-opioid receptor agonist SNC80 ((+)-4-[(alphaR)-alpha-[(2S,5R)-2,5-dimethyl-4-(2-propenyl)-1-piperazinyl]-(3-methoxyphenyl)methyl]-N,N-diethylbenzamide) in an olfactory bulbectomized rat model, Brain Res., 2008, 1208:160-169), OBX rats were prepared by extracting the rat olfactory bulbs, and then breeding the rats in an isolated circumstance. Hyperemotional reaction was evaluated on the day 14 after the surgical operation and before the division into groups, and 2 hours after the administration on the days 1, 4, 7, 10, and 14 of the administration period according to the hyperemotional reaction evaluation criteria prepared by Gomita et al. (Gomita et al., Behavioral pharmacological and electroencephalographical studies of 7-chloro-1-methyl-5-phenyl-1H-1,5-benzodiazepine-2,4-(3H,5H:)-dione (Clobazam), Folia Pharmacologica Japonica, 82, 267 (1983)). The drug was subcutaneously administered once a day continuously over 14 days. As a positive control drug, fluoxetine, which is a selective serotonin reuptake inhibitor (SSRI), was used. As the solvent, a 1% cyclodextrin (CD) was used.

[5] = ratio to maximum reaction of control drug U-69593 taken as 100%
[6] = CHO cells expressing human μ receptor, cAMP, in the presence of forskolin
[7] = ratio to maximum reaction of control drug DAMGO taken as 100%

T1 sequence (P41145 whole entry): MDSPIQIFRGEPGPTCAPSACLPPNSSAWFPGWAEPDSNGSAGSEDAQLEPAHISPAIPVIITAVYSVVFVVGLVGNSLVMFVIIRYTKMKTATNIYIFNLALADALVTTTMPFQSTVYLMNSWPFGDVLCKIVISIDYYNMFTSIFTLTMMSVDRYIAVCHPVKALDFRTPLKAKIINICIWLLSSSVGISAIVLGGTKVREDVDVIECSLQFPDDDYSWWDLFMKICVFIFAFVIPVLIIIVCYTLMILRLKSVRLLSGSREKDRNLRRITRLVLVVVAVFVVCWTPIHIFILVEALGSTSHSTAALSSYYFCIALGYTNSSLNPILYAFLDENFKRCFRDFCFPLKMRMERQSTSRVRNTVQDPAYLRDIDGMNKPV
T3 sequence (P41143 whole entry): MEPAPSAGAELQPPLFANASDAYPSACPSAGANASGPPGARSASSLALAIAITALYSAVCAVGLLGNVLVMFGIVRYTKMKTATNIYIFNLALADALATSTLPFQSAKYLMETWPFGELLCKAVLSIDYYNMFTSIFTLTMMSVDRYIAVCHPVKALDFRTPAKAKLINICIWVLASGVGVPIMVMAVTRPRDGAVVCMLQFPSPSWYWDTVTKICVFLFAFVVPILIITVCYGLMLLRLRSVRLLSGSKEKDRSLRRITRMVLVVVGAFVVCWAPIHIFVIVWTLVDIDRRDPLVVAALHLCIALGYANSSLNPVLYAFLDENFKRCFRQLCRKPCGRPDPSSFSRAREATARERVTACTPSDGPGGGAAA
T2 sequence (P35372 whole entry): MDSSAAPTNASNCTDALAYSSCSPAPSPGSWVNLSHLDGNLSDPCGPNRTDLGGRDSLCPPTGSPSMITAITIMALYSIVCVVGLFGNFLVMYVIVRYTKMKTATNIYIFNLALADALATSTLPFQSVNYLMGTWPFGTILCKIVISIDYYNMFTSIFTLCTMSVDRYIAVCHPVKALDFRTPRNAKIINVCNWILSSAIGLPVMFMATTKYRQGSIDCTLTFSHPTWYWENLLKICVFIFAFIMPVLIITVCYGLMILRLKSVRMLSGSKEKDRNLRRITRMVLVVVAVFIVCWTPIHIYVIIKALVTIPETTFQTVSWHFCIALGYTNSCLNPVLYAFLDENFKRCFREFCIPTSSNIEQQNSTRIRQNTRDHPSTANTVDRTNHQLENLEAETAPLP

| Compound | pEC50 [1] | Emax [1, 5] [%] | pEC50 [3] | Emax [3] [%] | pEC50 [2, 6] | Emax [2, 7] [%] | κ receptor reaction rate at the maximum concentration (reference value, marked *) [1] | also measured |
| --- | --- | --- | --- | --- | --- | --- | --- | --- |
| O=C(c1ccc[n+]([O-])c1)N1C[C@H]2C[C@@]34CC[C@@H]1[C@@H]2[C@@]31CCN(CC2CC2)[C@@H]4Cc2ccc(O)cc21 [Example 4, 3-((1S,3aR,5aS,6R,11bR,11cS)-14-(cyclopropylmethyl)-10-hydroxy-2,3,3a,4,5,6,7,11c-octahydro-1H-6,11b-(epiminoethano)-1,5a-methanonaphtho[1,2-e]indole-3-carbonyl)pyridine 1-oxide] | < 8.00 | 27 | > 8.52 | 86 | – | – | – | μ receptor reaction rate at the maximum concentration (reference value, marked *) ([2]; maximum reaction not reached, maximum concentration 10 μM, DAMGO = 100%): 5.5* % |
| O=C(c1ccc(=O)[nH]c1)N1C[C@H]2C[C@@]34CC[C@@H]1[C@@H]2[C@@]31CCN(CC2CC2)[C@@H]4Cc2ccc(O)cc21 [Example 5, 5-((1S,3aR,5aS,6R,11bR,11cS)-14-(cyclopropylmethyl)-10-hydroxy-2,3,3a,4,5,6,7,11c-octahydro-1H-6,11b-(epiminoethano)-1,5a-methanonaphtho[1,2-e]indole-3-carbonyl)pyridin-2(1H)-one] | > 9.00 | 20 | > 8.52 | 81 | < 9.00 | 9.7 | – | – |
| Cn1cccc(C(=O)N2C[C@H]3C[C@@]45CC[C@@H]2[C@@H]3[C@@]42CCN(CC3CC3)[C@@H]5Cc3ccc(O)cc32)c1=O [Example 6, 3-((1S,3aR,5aS,6R,11bR,11cS)-14-(cyclopropylmethyl)-10-hydroxy-2,3,3a,4,5,6,7,11c-octahydro-1H-6,11b-(epiminoethano)-1,5a-methanonaphtho[1,2-e]indole-3-carbonyl)-1-methylpyridin-2(1H)-one] | – | – | > 8.52 | 97 | < 8.00 | 7.7 | 3.2* % | – |
| Cc1ccc(C(=O)N2C[C@H]3C[C@@]45CC[C@@H]2[C@@H]3[C@@]42CCN(CC3CC3)[C@@H]5Cc3ccc(O)cc32)c(=O)[nH]1 [Example 8, 3-((1S,3aR,5aS,6R,11bR,11cS)-14-(cyclopropylmethyl)-10-hydroxy-2,3,3a,4,5,6,7,11c-octahydro-1H-6,11b-(epiminoethano)-1,5a-methanonaphtho[1,2-e]indole-3-carbonyl)-6-methylpyridin-2(1H)-one] | > 9.00 | 21 | > 8.52 | 70 | < 9.00 | 8.6 | – | – |
| O=C(c1cc[nH]c(=O)c1)N1C[C@H]2C[C@@]34CC[C@@H]1[C@@H]2[C@@]31CCN(CC2CC2)[C@@H]4Cc2ccc(O)cc21 [Example 11, 4-((1S,3aR,5aS,6R,11bR,11cS)-14-(cyclopropylmethyl)-10-hydroxy-2,3,3a,4,5,6,7,11c-octahydro-1H-6,11b-(epiminoethano)-1,5a-methanonaphtho[1,2-e]indole-3-carbonyl)pyridin-2(1H)-one] | – | – | > 8.52 | 76 | < 9.00 | 11 | −2.5* % | – |
| O=C(c1cc(=O)cc[nH]1)N1C[C@H]2C[C@@]34CC[C@@H]1[C@@H]2[C@@]31CCN(CC2CC2)[C@@H]4Cc2ccc(O)cc21 [Example 14, 2-((1S,3aR,5aS,6R,11bR,11cS)-14-(cyclopropylmethyl)-10-hydroxy-2,3,3a,4,5,6,7,11c-octahydro-1H-6,11b-(epiminoethano)-1,5a-methanonaphtho[1,2-e]indole-3-carbonyl)pyridin-4(1H)-one] | – | – | > 8.52 | 95 | < 9.00 | 8.1 | −6.7* % | – |
| O=C(c1cc(=O)cco1)N1C[C@H]2C[C@@]34CC[C@@H]1[C@@H]2[C@@]31CCN(CC2CC2)[C@@H]4Cc2ccc(O)cc21 [Example 19, 2-((1S,3aR,5aS,6R,11bR,11cS)-14-(cyclopropylmethyl)-10-hydroxy-2,3,3a,4,5,6,7,11c-octahydro-1H-6,11b-(epiminoethano)-1,5a-methanonaphtho[1,2-e]indole-3-carbonyl)-4H-pyran-4-one] | – | – | > 8.52 | 91 | < 9.00 | 19 | 0.6* % | – |
| CCn1cc(C(=O)N2C[C@H]3C[C@@]45CC[C@@H]2[C@@H]3[C@@]42CCN(CC3CC3)[C@@H]5Cc3ccc(O)cc32)ccc1=O [Example 28, 5-((1S,3aR,5aS,6R,11bR,11cS)-14-(cyclopropylmethyl)-10-hydroxy-2,3,3a,4,5,6,7,11c-octahydro-1H-6,11b-(epiminoethano)-1,5a-methanonaphtho[1,2-e]indole-3-carbonyl)-1-ethylpyridin-2(1H)-one] | > 9.00 | 18 | > 8.52 | 92 | < 9.00 | 16 | – | – |
| Cn1cccc(C(=O)N2C[C@H]3C[C@@]45CC[C@@H]2[C@@H]3[C@@]42CCN(CC3CC3)[C@@H]5Cc3ccc(O)cc32)c1=O [Example 31, 3-((1S,3aR,5aS,6R,11bR,11cS)-14-(cyclopropylmethyl)-10-hydroxy-2,3,3a,4,5,6,7,11c-octahydro-1H-6,11b-(epiminoethano)-1,5a-methanonaphtho[1,2-e]indole-3-carbonyl)-1-methylpyridin-2(1H)-one hydrochloride] | – | – | – | – | – | – | – | μ receptor Emax [2]: 7.7%; pEC50 [2]: < 8.00; δ receptor Emax [3]: 97% |
| Cc1ccc(C(=O)N2C[C@H]3C[C@@]45CC[C@@H]2[C@@H]3[C@@]42CCN(CC3CC3)[C@@H]5Cc3ccc(O)cc32)c(=O)[nH]1 [Example 32, 3-((1S,3aR,5aS,6R,11bR,11cS)-14-(cyclopropylmethyl)-10-hydroxy-2,3,3a,4,5,6,7,11c-octahydro-1H-6,11b-(epiminoethano)-1,5a-methanonaphtho[1,2-e]indole-3-carbonyl)-6-methylpyridin-2(1H)-one hydrochloride] | – | – | – | – | – | – | – | κ receptor Emax [1, 5]: 21%; μ receptor Emax [2, 7]: 8.6%; δ receptor Emax [3]: 70% |
| CNCCC(Oc1ccc(C(F)(F)F)cc1)c1ccccc1 (centres unmarked) [fluoxetine, reference compound] | – | – | – | – | – | – | – | hyperemotional reactions of the OBX rats compared with the solvent administration group [4]: significantly reduced |
